Assay results: patent publication US10745416B2, “Macrocyclic compounds for treating disease” (Turning Point Therapeutics, Inc., priority 2017, dated 2020)

Tests used:
KG-1 = assay: Cell proliferation assay (CellTiter-Glo, 72 hours); assay type: cell-based, human; conditions: Homo sapiens, KG-1, anti-cell proliferation
In short: (§1)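 Cells used were KG-1 (AML), TT medullary thyroid carcinoma ([…]) and KM12 colon (TPM3-TRKA). Viability was read by CellTiter-Glo ATP luminescence, and IC50 derived by curve fitting.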

KM12 cell (TPM3-TRKA) = assay: Cell proliferation assay (CellTiter-Glo, 72 hours); assay type: cell-based, human; conditions: Homo sapiens, KM12, anti-cell proliferation
In short: as §1

RET (L790F) = target: T1, RET (L790F) (Homo sapiens, UniProt P07949, L790F); assay: Biochemical kinase assay (Reaction Biology, 33P ATP); conditions: 10 μM ATP
T1 construct: purchased Reaction Biology Corporation (assay run at the CRO)
T1 sequence (P07949 29-1114 L790F): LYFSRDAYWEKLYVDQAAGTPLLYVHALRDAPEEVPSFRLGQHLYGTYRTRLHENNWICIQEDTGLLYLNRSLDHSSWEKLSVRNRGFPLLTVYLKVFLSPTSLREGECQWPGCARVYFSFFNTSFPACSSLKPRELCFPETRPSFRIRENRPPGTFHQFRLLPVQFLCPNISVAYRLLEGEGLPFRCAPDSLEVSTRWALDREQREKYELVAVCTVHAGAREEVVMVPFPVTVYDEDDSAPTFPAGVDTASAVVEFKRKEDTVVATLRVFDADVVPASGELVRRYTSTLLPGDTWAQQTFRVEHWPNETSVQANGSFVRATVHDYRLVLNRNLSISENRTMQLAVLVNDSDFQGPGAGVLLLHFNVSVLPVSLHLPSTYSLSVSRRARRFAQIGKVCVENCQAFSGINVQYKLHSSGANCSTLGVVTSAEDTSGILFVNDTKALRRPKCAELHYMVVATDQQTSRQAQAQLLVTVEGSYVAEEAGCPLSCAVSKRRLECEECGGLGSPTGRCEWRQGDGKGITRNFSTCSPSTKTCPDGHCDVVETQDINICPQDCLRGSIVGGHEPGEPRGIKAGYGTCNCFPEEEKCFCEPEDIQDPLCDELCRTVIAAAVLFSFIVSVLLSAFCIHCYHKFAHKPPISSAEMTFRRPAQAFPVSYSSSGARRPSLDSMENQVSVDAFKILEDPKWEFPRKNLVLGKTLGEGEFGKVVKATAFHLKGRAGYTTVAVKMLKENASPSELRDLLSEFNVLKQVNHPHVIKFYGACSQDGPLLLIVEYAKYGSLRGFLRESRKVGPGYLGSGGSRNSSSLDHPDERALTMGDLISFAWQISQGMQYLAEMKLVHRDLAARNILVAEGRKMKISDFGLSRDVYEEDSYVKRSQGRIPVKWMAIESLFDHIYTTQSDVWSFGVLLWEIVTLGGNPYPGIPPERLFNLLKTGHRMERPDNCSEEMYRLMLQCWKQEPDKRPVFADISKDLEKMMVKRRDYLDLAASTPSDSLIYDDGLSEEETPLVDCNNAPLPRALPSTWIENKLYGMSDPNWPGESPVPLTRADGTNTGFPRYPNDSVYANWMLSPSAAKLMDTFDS
Description: (§2) The biochemical kinase assay was performed at Reaction Biology Corporation (www.reactionbiology.com, Malvern, Pa.) following the procedures described in the reference (Anastassiadis T, et al Nat Biotechnol. 2011, 29, 1039). Specific kinase/substrate pairs along with required cofactors were prepared in reaction buffer; 20 mM Hepes pH 7.5, 10 mM MgCl2, 1 mM EGTA, 0.02% Brij35, 0.02 mg/ml BSA, 0.1 mM Na3VO4, 2 mM DTIT, 1% DMSO. Compounds were delivered into the reaction, followed ˜20 minutes later by addition of a mixture of ATP (Sigma, St. Louis Mo.) and ^33P ATP (Perkin Elmer, Waltham Mass.) to a final concentration of 10 μM. Reactions were carried out at room temperature for 120 min, followed by spotting of the reactions onto P81 ion exchange filter paper (Whatman Inc., Piscataway, N.J.). Unbound phosphate was removed by extensive washing of filters in 0.75% phosphoric acid. […] IC50 values and curve fits were obtained using Prism (GraphPad Software).

RET-PRKAR1A (PTC2) = target: T2, RET-PRKAR1A (PTC2) (Homo sapiens, UniProt P07949); assay: as above; conditions: 10 μM ATP
T2 construct: fusion transcripts composed of the 3′ end of RET kinase domain and the 5′ end of separate partner genes; PRKAR1A N-terminal part (fusion partner); purchased Reaction Biology Corporation (assay run at the CRO); the other entry of the earlier key: PRKAR1A (P10644, cAMP-dependent protein kinase type I-alpha regulatory subunit)
Description: as §2

RET (S891A) = target: T3, RET (S891A) (Homo sapiens, UniProt P07949, S891A); assay: as above; conditions: 10 μM ATP
T3 construct: purchased Reaction Biology Corporation (assay run at the CRO)
Description: as §2

Src = target: T4, Src (Homo sapiens, UniProt P12931); assay: as above; conditions: 10 μM ATP
T4 construct: purchased Reaction Biology Corporation (assay run at the CRO)
T4 sequence (P12931 whole entry): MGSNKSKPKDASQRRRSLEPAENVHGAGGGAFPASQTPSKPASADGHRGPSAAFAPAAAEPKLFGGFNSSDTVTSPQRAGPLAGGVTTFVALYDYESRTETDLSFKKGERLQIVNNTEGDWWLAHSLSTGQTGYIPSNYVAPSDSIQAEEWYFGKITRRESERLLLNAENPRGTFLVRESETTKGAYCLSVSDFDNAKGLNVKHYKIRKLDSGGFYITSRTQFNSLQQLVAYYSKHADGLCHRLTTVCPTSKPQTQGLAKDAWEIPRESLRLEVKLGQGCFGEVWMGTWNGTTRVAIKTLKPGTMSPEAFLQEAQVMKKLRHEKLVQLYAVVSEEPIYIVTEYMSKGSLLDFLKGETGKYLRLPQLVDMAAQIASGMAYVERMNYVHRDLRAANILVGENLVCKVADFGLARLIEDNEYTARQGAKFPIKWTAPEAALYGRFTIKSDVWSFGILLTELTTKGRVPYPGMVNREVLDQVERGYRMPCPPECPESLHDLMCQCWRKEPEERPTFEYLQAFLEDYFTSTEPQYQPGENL
Description: as §2

RET (Y791F) = target: T5, RET (Y791F) (Homo sapiens, UniProt P07949, Y791F); assay: as above; conditions: 10 μM ATP
T5 construct: purchased Reaction Biology Corporation (assay run at the CRO)
T5 sequence (P07949 29-1114 Y791F): as the sequence (P07949 29-1114 L790F) above, with F762L, Y763F counted along it
Description: as §2

RET (R749T) = target: T6, RET (R749T) (Homo sapiens, UniProt P07949, R749T); assay: as above; conditions: 10 μM ATP
T6 construct: purchased Reaction Biology Corporation (assay run at the CRO)
Description: as §2

RET (V804M) = target: T7, RET (V804M) (Homo sapiens, UniProt P07949, V804M); assay: as above; conditions: 10 μM ATP
T7 construct: purchased Reaction Biology Corporation (assay run at the CRO)
T7 sequence (P07949 29-1114 V804M): as the sequence (P07949 29-1114 L790F) above, with F762L, V776M counted along it
Description: as §2

RET (V778I) = target: T8, RET (V778I) (Homo sapiens, UniProt P07949, V778I); assay: as above; conditions: 10 μM ATP
T8 construct: purchased Reaction Biology Corporation (assay run at the CRO)
Description: as §2

RET (G691S) = target: T9, RET (G691S) (Homo sapiens, UniProt P07949, G691S); assay: as above; conditions: 10 μM ATP
T9 construct: purchased Reaction Biology Corporation (assay run at the CRO)
Description: as §2

YES = target: T10, YES (Homo sapiens, UniProt P07947); assay: as above; conditions: 10 μM ATP
T10 construct: purchased Reaction Biology Corporation (assay run at the CRO)
Description: as §2

RET = target: T11, RET (Homo sapiens, UniProt P07949); assay: as above; conditions: 10 μM ATP
T11 construct: purchased Reaction Biology Corporation (assay run at the CRO)
Description: as §2

FYN = target: T12, FYN (Homo sapiens, UniProt P06241); assay: as above; conditions: 10 μM ATP
T12 construct: purchased Reaction Biology Corporation (assay run at the CRO)
Description: as §2

BaF3 EML4-ALK = target: T13, BaF3 EML4-ALK (Homo sapiens, UniProt Q9UM73); assay: Cell proliferation assay (CellTiter-Glo, 72 hours); assay type: cell-based; conditions: anti-cell proliferation
T13 construct: The EML4-ALK gene (variant 1) was synthesized at GenScript and cloned into pCDH-CMV-MCS-EF1-Puro plasmid (System Biosciences, Inc); fused on or other part: Q9HC35 (Echinoderm microtubule-associated protein-like 4)
In short: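 Ba/F3 cells were stably transduced with wild-type EML4-ALK variant 1 and selected for IL-3-independent growth. Cells were seeded for 24 h, then exposed to compounds for 72 h at 37 °C, 5% CO2. Viability was read as ATP luminescence and IC50 values were fitted.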

BaF3 KIF5B-RET_V804M = target: T14, BaF3 KIF5B-RET_V804M (Homo sapiens, UniProt P07949, V804M, cells depend on it); assay: Cell proliferation assay (CellTiter-Glo, 72 hours); assay type: cell-based; conditions: anti-cell proliferation, read-out: BaF3 KIF5B-RET_V804M IC50
T14 construct: fused on or other part: P33176 (Kinesin-1 heavy chain)
T14 sequence (P07949 whole entry V804M, the tested form may be a part): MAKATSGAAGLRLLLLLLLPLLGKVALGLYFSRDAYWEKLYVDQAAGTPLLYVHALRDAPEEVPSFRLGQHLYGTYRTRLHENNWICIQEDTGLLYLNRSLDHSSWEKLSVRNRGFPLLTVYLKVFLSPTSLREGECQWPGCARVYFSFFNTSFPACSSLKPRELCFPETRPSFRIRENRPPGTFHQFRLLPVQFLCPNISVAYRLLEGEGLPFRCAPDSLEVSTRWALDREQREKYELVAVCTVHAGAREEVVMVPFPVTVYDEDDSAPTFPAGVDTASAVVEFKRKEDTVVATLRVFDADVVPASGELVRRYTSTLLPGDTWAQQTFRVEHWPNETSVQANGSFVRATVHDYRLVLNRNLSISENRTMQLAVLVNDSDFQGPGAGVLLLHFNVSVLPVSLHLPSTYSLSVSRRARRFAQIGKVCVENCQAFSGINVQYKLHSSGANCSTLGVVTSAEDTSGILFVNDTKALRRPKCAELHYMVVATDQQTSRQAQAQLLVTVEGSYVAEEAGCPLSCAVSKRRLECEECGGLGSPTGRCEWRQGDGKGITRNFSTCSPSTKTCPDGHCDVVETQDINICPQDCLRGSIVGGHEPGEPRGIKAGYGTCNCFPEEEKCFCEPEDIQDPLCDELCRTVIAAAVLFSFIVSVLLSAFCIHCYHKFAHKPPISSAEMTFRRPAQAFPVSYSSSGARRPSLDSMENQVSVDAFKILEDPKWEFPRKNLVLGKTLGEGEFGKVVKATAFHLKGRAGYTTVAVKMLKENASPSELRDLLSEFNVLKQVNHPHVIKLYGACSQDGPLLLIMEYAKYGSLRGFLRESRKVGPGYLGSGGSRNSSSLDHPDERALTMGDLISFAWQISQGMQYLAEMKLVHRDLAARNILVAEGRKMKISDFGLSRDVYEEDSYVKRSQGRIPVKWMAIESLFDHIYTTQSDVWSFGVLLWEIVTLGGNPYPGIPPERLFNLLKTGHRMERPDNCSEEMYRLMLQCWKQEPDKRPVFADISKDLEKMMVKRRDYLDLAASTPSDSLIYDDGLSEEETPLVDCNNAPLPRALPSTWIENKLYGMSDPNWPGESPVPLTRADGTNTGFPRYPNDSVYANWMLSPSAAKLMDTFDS
In short: (§3)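 Ba/F3 cells were lentivirally transduced with wild-type or mutant KIF5B-RET, puromycin-selected and grown without IL-3. CellTiter-Glo ATP luminescence read viability, and IC50 values came from curve fitting.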

BaF3 KIF5B-RET_G810R = target: T15, BaF3 KIF5B-RET_G810R (Homo sapiens, UniProt P07949, G810R, cells depend on it); assay: Cell proliferation assay (CellTiter-Glo, 72 hours); assay type: cell-based; conditions: anti-cell proliferation, read-out: BaF3 KIF5B-RET_G810R IC50
T15 construct: fused on or other part: P33176 (Kinesin-1 heavy chain)

BaF3 KIF5B-RET = target: T16, BaF3 KIF5B-RET (Homo sapiens, UniProt P07949); assay: Cell proliferation assay (CellTiter-Glo, 72 hours); assay type: cell-based; conditions: anti-cell proliferation, read-out: BaF3 KIF5B-RET IC50
T16 construct: fused on or other part: P33176 (Kinesin-1 heavy chain)
In short: as §3

Row | IC50 (RET (L790F)) | IC50 (RET-PRKAR1A (PTC2)) | IC50 (RET (S891A)) | IC50 (Src) | IC50 (RET (Y791F)) | IC50 (RET (R749T)) | IC50 (RET (V804M)) | IC50 (RET (V778I)) | IC50 (RET (G691S)) | IC50 (YES) | IC50 (RET) | IC50 (FYN) | GI50 (BaF3 EML4-ALK) | GI50 (BaF3 KIF5B-RET_V804M) | GI50 (BaF3 KIF5B-RET_G810R) | GI50 (BaF3 KIF5B-RET) | SMILES | IC50 (KG-1) | IC50 (KM12 cell (TPM3-TRKA))
1 | 0.12 nM | 0.129 nM | 0.664 nM | 0.875 nM | < 0.0508 nM | 0.271 nM | 7.86 nM | < 0.0508 nM | 3.01 nM | 1.72 nM | 0.0994 nM | 1.81 nM | 211 nM | 1000 nM | 30 nM | 0.25 nM | C[C@H]1CNC(=O)c2cnn3cc4c(nc23)N(Cc2cc(F)ccc2O1)[C@@H]1CCC[C@@H]1O4 [Compound 1, (3aR,11S,20aS)-7-fluoro-11-methyl-2,3,3a,12,13,20a-hexahydro-1H,5H-17-19-(metheno)cyclopenta[5,6][1,4] oxazino[3,4-i]pyrazolo[4,3-f][1,4,8,10]benzoxatriacyclotridecin-14(11H)-one] | 131 nM | 3 nM
2 | 1.31 nM | 0.29 nM | 0.303 nM | 1.46 nM | 7.95 nM | 0.32 nM | 18.8 nM | 0.233 nM | 0.941 nM | 2.64 nM | 1.01 nM | 1.94 nM | 516 nM | 598 nM | 22 nM | 2.4 nM | C[C@H]1CNC(=O)c2cnn3cc4c(nc23)N(Cc2cc(F)cnc2O1)[C@@H]1CCC[C@@H]1O4 [Compound 5, (3aR,11S,20aS)-7-fluoro-11-methyl-2,3,3a,12,13,20a-hexahydro-1H,5H-17-19-(metheno)cyclopenta[5,6][1,4] oxazino[3,4-i]pyrazolo[4,3-f]pyrido[3,2-l][1,4,8,10]oxatriazacyclotridecin-14(11H)-one] | 26.8 nM | 6.9 nM
